Measurements: US20250144067A1, “PERSONALIZED STARVATION THERAPY FOR CANCER” (Faeth Therapeutics, Inc., priority 2021, published 2025)
Structures can show the parent of a compound that is named as a salt. Where two headings read alike, the source gives them in different places.

Assays:
[1] = test system: NCI-H292 lung cancer cells; experiment: FDA drug screening, complete media vs cholesterol-free media with simvastatin (TABLE 2); format: cell-based, human
[2] = test system: NCI-H292 lung cancer cells; experiment: FDA drug screening, complete media vs cholesterol-free media without statin (TABLE 1); format: cell-based, human
[3] = NCI-H292 cells, FDA drug library screen, cholesterol-free media with simvastatin 0.04 μM
[4] = NCI-H292 cells, FDA drug library screen, complete media
[5] = complete media minus cholesterol-free media + simvastatin, […]
[6] = NCI-H292 cells, cholesterol-free media without statin
[7] = complete media vs cholesterol-free media + simvastatin (0.04 μM), >0 enhanced anti-cancer activity, about 0 neutral, <0 antagonist
[8] = Complete minus Cholesterol-free, greater than 0 enhanced anti-cancer activity, about 0 neutral, below 0 antagonist
[9] = NCI-H292 cells, FDA drug library screen, cholesterol-free media without statin
[10] = NCI-H292 cells, FDA library drug in cholesterol-free media with simvastatin 0.04 μM
[11] = NCI-H292 cells, FDA library drug in complete media
[12] = Complete minus Cholesterol-free, greater than 0 enhanced anti-cancer activity, about 0 neutral, below 0 antagonists
[13] = NCI-H292 cells in cholesterol-free media without statin
[14] = NCI-H292 cells in complete media
[15] = complete media minus cholesterol-free media + simvastatin, >0 enhanced anti-cancer activity, about 0 neutral, <0 antagonist
[16] = Complete minus Cholesterol-free, >0 enhanced anti-cancer activity, about 0 neutral, <0 antagonist
[17] = NCI-H292 cells, cholesterol-free media without statin, FDA drug library screen
[18] = NCI-H292 cells, complete media, FDA drug library screen
[19] = NCI-H292 cells, cholesterol-free media with simvastatin 0.04 μM, cell growth value in FDA drug screen
[20] = NCI-H292 cells, complete media, cell growth value in FDA drug screen
[21] = complete vs cholesterol-free media, >0 enhanced anti-cancer activity, about 0 neutral, <0 antagonist
[22] = Complete minus Cholesterol-free, […]
[23] = complete vs cholesterol-free media, greater than 0 enhanced anti-cancer activity, about 0 neutral, below 0 antagonists

Compound: CCCCCCCCCC(=O)N[C@@H](Cc1c[nH]c2ccccc12)C(=O)N[C@H](CC(N)=O)C(=O)N[C@@H](CC(=O)O)C(=O)N[C@@H]1C(=O)NCC(=O)N[C@@H](CCCN)C(=O)N[C@@H](CC(=O)O)C(=O)N[C@H](C)C(=O)N[C@@H](CC(=O)O)C(=O)NCC(=O)N[C@H](CO)C(=O)N[C@@H]([C@H](C)CC(=O)O)C(=O)N[C@@H](CC(=O)c2ccccc2N)C(=O)O[C@@H]1C [Daptomycin]
- Cholesterol-free media + simvastatin (0.04 μM) [1, 3]: 1.147
- Complete Media [1, 4]: 1.33
- Difference [1, 5]: 0.18
- Cholesterol-free [2, 6]: 1.025
- Complete ([2]; NCI-H292 cells, complete media): 0.6476
- Difference ([2]; complete vs cholesterol-free media, […]): −0.38

Compound: CN(c1nccc(=O)[nH]1)C1CCN(c2nc3ccccc3n2Cc2ccc(F)cc2)CC1 [Mizolastine]
- Cholesterol-free media + simvastatin (0.04 μM) [1, 3]: 0.9531
- Complete Media [1, 4]: 0.8007
- Difference [1, 7]: −0.15
- Difference [2, 8]: −0.17
- Cholesterol-free [2, 9]: 1.446
- Complete [2, 4]: 1.273

Compound: Clc1cccc(Cl)c1N=C1NCCN1 [Clonidine]
- Cholesterol-free media + simvastatin (0.04 μM) [1, 10]: 1.26
- Complete Media [1, 11]: 0.9157
- Difference [1, 7]: −0.34
- Difference [2, 12]: −0.63
- Cholesterol-free [2, 13]: 1.46
- Complete [2, 14]: 0.8249

Compound: O=C(O)/C=C/c1ccc(Cn2ccnc2)cc1 [Ozagrel]
- Cholesterol-free media + simvastatin (0.04 μM) [1, 3]: 1.504
- Complete Media [1, 4]: 1.942
- Difference [1, 15]: 0.44
- Difference [2, 16]: −0.04
- Cholesterol-free [2, 17]: 1.079
- Complete [2, 18]: 1.034

Compound: OC(c1ccccc1)(c1ccccc1)C12CC[N+](CCOCc3ccccc3)(CC1)CC2.[Br-] [Umeclidinium (bromide)]
- Cholesterol-free media + simvastatin (0.04 μM) [1]: 1.336
- Complete Media [1]: 0.9344
- Difference [1]: −0.40
- Cholesterol-free [2]: 0.5848
- Complete [2]: 0.7554
- Difference [2]: 0.17

Compound: COC(=O)Nc1nc2ccc(C(=O)c3ccccc3)cc2[nH]1 [Mebendazole]
- Cholesterol-free media + simvastatin (0.04 μM) [1, 19]: 0.4675
- Complete Media [1, 20]: 0.5846
- Difference [1, 15]: 0.12
- Cholesterol-free [2, 17]: 0.1458
- Complete [2, 18]: 0.3848
- Difference [2, 21]: 0.24

Compound: NCCC[C@H](NC(=O)[C@@H]1CCCN1C(=O)[C@@H]1CSSC[C@H](N)C(=O)N[C@@H](Cc2ccc(O)cc2)C(=O)N[C@@H](Cc2ccccc2)C(=O)N[C@@H](CCC(N)=O)C(=O)N[C@@H](CC(N)=O)C(=O)N1)C(=O)NCC(N)=O [Ornipressin]
- Cholesterol-free media + simvastatin (0.04 μM) [1, 10]: 1.553
- Complete Media [1, 11]: 0.7895
- Difference ([1]; complete media vs cholesterol-free media + simvastatin (0.04 μM), […]): −0.76
- Difference [2, 22]: 0.03
- Cholesterol-free [2, 17]: 1.024
- Complete [2, 18]: 1.051

Compound: Mosapride (citrate)
- Cholesterol-free media + simvastatin (0.04 μM) [1, 3]: 0.963
- Complete Media [1, 4]: 0.8629
- Difference [1, 7]: −0.10
- Cholesterol-free [2, 17]: 0.9953
- Complete [2, 18]: 1.241
- Difference [2, 21]: 0.25

Compound: CC(C)(C)CC(C)(C)c1ccc(O)c(Cc2ccc(Cl)cc2Cl)c1 [Clofoctol]
- Cholesterol-free media + simvastatin (0.04 μM) [1, 3]: 1.057
- Complete Media [1, 4]: 1.232
- Difference [1, 15]: 0.17
- Difference [2, 12]: −0.85
- Cholesterol-free [2, 13]: 1.815
- Complete [2, 14]: 0.9672

Compound: CS(=O)(=O)n1cc2c(n1)CN([C@H]1CO[C@H](c3cc(F)ccc3F)[C@@H](N)C1)C2 [Omarigliptin]
- Cholesterol-free media + simvastatin (0.04 μM) [1, 10]: 1.764
- Complete Media [1, 11]: 1.42
- Difference [1, 7]: −0.34
- Difference [2, 12]: −0.63
- Cholesterol-free [2, 13]: 1.475
- Complete [2, 14]: 0.8446

Compound: CCN(CC)Cc1cc(Nc2ccnc3cc(Cl)ccc23)ccc1O [Amodiaquine (dihydrochloride)]
- Cholesterol-free media + simvastatin (0.04 μM) [1, 10]: 1.766
- Complete Media [1, 11]: 1.059
- Difference [1, 7]: −0.71
- Cholesterol-free [2, 6]: 1.475
- Complete ([2]; NCI-H292 cells, complete media): 1.037
- Difference [2, 23]: −0.44

Compound: CC(C)COc1ccc(CNC(=O)N(Cc2ccc(F)cc2)C2CCN(C)CC2)cc1 [Pimavanserin]
- Cholesterol-free media + simvastatin (0.04 μM) [1, 3]: 0.8784
- Complete Media [1, 4]: 1.133
- Difference [1, 15]: 0.25
- Cholesterol-free [2, 17]: 0.9868
- Complete [2, 18]: 1.126
- Difference [2, 21]: 0.14

Compound: C[C@H](Cn1cnc2c(N)ncnc21)OCP(=O)(O)O.O [Tenofovir (hydrate)]
- Cholesterol-free media + simvastatin (0.04 μM) [1, 3]: 1.824
- Complete Media [1, 4]: 2.099
- Difference [1, 15]: 0.27
- Cholesterol-free [2, 17]: 0.8777
- Complete [2, 18]: 1.281
- Difference [2, 21]: 0.40

Compound: CC1CC(OC(=O)c2ccccc2O)CC(C)(C)C1 (stereo not shown) [Homosalate]
- Cholesterol-free media + simvastatin (0.04 μM) [1, 19]: 1.411
- Complete Media [1, 20]: 1.442
- Difference [1, 15]: 0.03
- Cholesterol-free [2, 6]: 0.9096
- Complete ([2]; NCI-H292 cells, complete media): 0.5831
- Difference [2, 23]: −0.33

Compound: OCCN1CCN(CCCN2c3ccccc3Sc3ccc(Cl)cc32)CC1 [Perphenazine]
- Cholesterol-free media + simvastatin (0.04 μM) [1, 3]: 0.707
- Complete Media [1, 4]: 0.9554
- Difference [1, 15]: 0.25
- Difference [2, 16]: 0.00
- Cholesterol-free [2, 17]: 0.9098
- Complete [2, 18]: 0.9103

Compound: COc1ccc(-c2cc(C(F)F)nn2-c2ccc(S(N)(=O)=O)cc2)cc1F [Deracoxib]
- Cholesterol-free media + simvastatin (0.04 μM) [1, 3]: 1.651
- Complete Media [1, 4]: 1.821
- Difference [1, 15]: 0.17
- Difference [2, 12]: −0.50
- Cholesterol-free [2, 13]: 1.682
- Complete [2, 14]: 1.181

Compound: CC(=O)O[C@]1(C(C)=O)CC[C@H]2[C@@H]3C=C(C)C4=CC(=O)CC[C@@H]4[C@H]3CC[C@@]21C [Nomegestrol acetate]
- Cholesterol-free media + simvastatin (0.04 μM) ([1]; NCI-H292 cells, cholesterol-free media with simvastatin 0.04 μM, FDA drug library screen (TABLE 2)): 0.9875
- Complete Media ([1]; NCI-H292 cells, complete media, FDA drug library screen (TABLE 2)): 0.9519
- Difference ([1]; complete media minus cholesterol-free media + simvastatin (0.04 μM), >0 enhanced anti-cancer activity, about 0 neutral, <0 antagonist): −0.04
- Difference [2, 8]: −0.14
- Cholesterol-free [2, 9]: 0.9161
- Complete [2, 4]: 0.7734

Compound: CC(=O)O[C@@]12CO[C@@H]1C[C@H](O)[C@@]1(C)C(=O)[C@H](O)C3=C(C)[C@@H](OC(=O)[C@H](O)[C@@H](NC(=O)OC(C)(C)C)c4ccccc4)C[C@@](O)([C@@H](OC(=O)c4ccccc4)[C@H]21)C3(C)C [Docetaxel (Trihydrate)]
- Cholesterol-free media + simvastatin (0.04 μM) [1, 3]: 0.3708
- Complete Media [1, 4]: 0.2794
- Difference [1, 7]: −0.09
- Difference [2, 16]: −0.05
- Cholesterol-free [2, 17]: 0.2507
- Complete [2, 18]: 0.2029

Compound: c1cnc2cc3c(cc2n1)[C@@H]1CNC[C@H]3C1 [Varenicline]
- Cholesterol-free media + simvastatin (0.04 μM) [1, 10]: 1.359
- Complete Media [1, 11]: 1.033
- Difference [1, 7]: −0.33
- Difference [2, 12]: −0.54
- Cholesterol-free [2, 13]: 1.353
- Complete [2, 14]: 0.8146

Compound: Camostat (mesylate)
- Cholesterol-free media + simvastatin (0.04 μM) [1, 10]: 1.328
- Difference [1, 7]: −0.30
- Cholesterol-free [2, 17]: 0.6104
- Complete [2, 18]: 0.9828
- Difference [2, 21]: 0.37

Compound: CCCCCCCCCCCC[N+](C)(C)CCOc1ccccc1.[Br-] [Domiphen (bromide)]
- Cholesterol-free media + simvastatin (0.04 μM) [1]: 0.01614
- Complete Media [1]: −0.0427
- Difference [1]: −0.06
- Cholesterol-free [2]: −0.0357
- Complete [2]: 0.01628
- Difference [2]: 0.05

Compound: CC(C)N(CCNC(=O)CN1CCCC1=O)C(C)C [Pramiracetam]
- Cholesterol-free media + simvastatin (0.04 μM) ([1]; NCI-H292 cells, cholesterol-free media with simvastatin 0.04 μM, […]): 0.8266
- Complete Media ([1]; NCI-H292 cells, complete media, […]): 0.938
- Difference [1, 5]: 0.11
- Difference [2, 22]: −0.05
- Cholesterol-free [2, 17]: 1.059
- Complete [2, 18]: 1.007

Compound: O=C1c2ccccc2C(=O)C1c1ccccc1 [Phenindione]
- Cholesterol-free media + simvastatin (0.04 μM) ([1]; NCI-H292 cells, drug in cholesterol-free media with simvastatin 0.04 μM): 1.567
- Complete Media ([1]; NCI-H292 cells, drug in complete media): 1.395
- Difference [1, 7]: −0.17
- Cholesterol-free [2, 17]: 0.7484
- Difference [2, 21]: 0.40
